Experimental data reported in US12162876B2, “Indazole kinase inhibitor and use thereof” (Tarapeutics Science Inc., priority 2018, dated 2024).

Legend:
Type in all cases: cell-based
TEL-cKIT/T670I-BaF3 = assay: Cell proliferation (CCK-8, 72 h), TEL-cKIT/T670I-BaF3; conditions: Mus musculus; BaF3 expressing cKIT T670I mutant kinase, 72 h, CCK-8; read-out: GI50 TEL-cKIT/T670I-BaF3
Text: (§1) In this example, human gastrointestinal stromal tumor cell line GIST-T1 (expressing wild-type C-KIT gene) (purchased from Cosmo Bio Co., Ltd. (Japan)), human gastrointestinal stromal tumor cell line GIST-T1-T670I (expressing C-KIT-T670I mutant gene) (constructed by our laboratory with CRISPR technology), mouse […] BaF3 (purchased from ATCC) were used. In addition, in this Example, mouse Tel-cKit-BaF3 (stably expressing C-KIT wild-type kinase), mouse Tel-cKit/T670I-BaF3 (stably expressing cKIT T670I mutant kinase), mouse Tel-PDGFRα-BaF3 (stably expressing PDGFRα kinase), mouse Tel-PDGFRβ-BaF3 (stably expressing PDGFRβ kinase), mouse Tel-VEGFR2-BaF3 (stably expressing VEGFR2 kinase), mouse Tel-FLT3-BaF3 (stably expressing FLT3 kinase) were also used. The above cell lines were all constructed by our laboratory. The construction method was as follows: the human C-KIT, C-KIT T670I, PDGFRα, PDGFRβ, VEGFR2, FLT3 kinase region sequences were amplified by PCR respectively and inserted into MSCV-Puro vector (purchased from Clontech) with N-terminal TEL fragment and/or NPM fragment and/or TPR fragment respectively, which was stably transferred into mouse BaF3 cells by retroviral method, and IL-3 growth factor was removed, and finally the cell lines in which protein was transferred depending on C-KIT, C-KIT/T670I, PDGFRα, PDGFRβ, VEGFR2, FLT3 were obtained. The GIST-T1-T670I (expressing C-KIT-T670I mutant gene) cell line was constructed by our laboratory. The construction method was as follows: the sgRNA targeting near the T670 site of the KIT gene was designed by the CRISPR design tool of the Zhang Feng Laboratory of the Massachusetts Institute of Technology (URL: crispr.mit.edu) and cloned into pSpCas9(BB)-2A-Puro vector (Addgene, USA); the obtained vector and a single-stranded oligonucleotide with T670I mutation near the T670 site were co-transfected into the cells, and after antibiotic selection, they were diluted and cultured in a single cell in a 96-well plate; the T670 site of the cells was sequenced and verified by the Sanger sequencing method.

TEL-cKIT-BaF3 = assay: Cell proliferation (CCK-8, 72 h), TEL-cKIT-BaF3; conditions: Mus musculus, BaF3 expressing wild-type C-KIT kinase
Text: as §1

TEL-FLT3-BaF3 = assay: Cell proliferation (CCK-8, 72 h), TEL-FLT3-BaF3; conditions: Mus musculus, BaF3 expressing FLT3 kinase
Text: as §1

BaF3 = assay: Cell proliferation (CCK-8, 72 h), parental BaF3; conditions: Mus musculus, parental BaF3 cells
Text: as §1

TEL-VEGFR2-BaF3 = assay: Cell proliferation (CCK-8, 72 h), TEL-VEGFR2-BaF3; conditions: Mus musculus, BaF3 expressing VEGFR2 kinase
Text: as §1

TEL-PDGFRβ-BaF3 = assay: Cell proliferation (CCK-8, 72 h), TEL-PDGFRβ-BaF3; conditions: Mus musculus, BaF3 expressing PDGFRβ kinase
Text: as §1

TEL-PDGFRα-BaF3 = assay: Cell proliferation (CCK-8, 72 h), TEL-PDGFRα-BaF3; conditions: Mus musculus, BaF3 expressing PDGFRα kinase
Text: as §1

SMILES	GI50 (TEL-cKIT/T670I-BaF3)	GI50 (TEL-cKIT-BaF3)	GI50 (TEL-FLT3-BaF3)	GI50 (TEL-VEGFR2-BaF3)	GI50 (TEL-PDGFRβ-BaF3)	GI50 (TEL-PDGFRα-BaF3)	GI50 (BaF3)
Cc1nc(NC(=O)C(O)CC(C)C)sc1-c1ccc2c(/C=C/c3ccccn3)n[nH]c2c1 (centres unmarked) [Compound 22, (E)-2-hydroxyl-4-methyl-N-(4-methyl-5-(3-(2-(pyridin-2-yl)vinyl)-1H-indazol-6-yl)thiazol-2-yl)pentanamide]	34 nM	1010 nM	2 nM				1530 nM
Cc1nc(NC(=O)Nc2cccc(C(F)(F)F)c2)sc1-c1ccc2c(/C=C/c3ccccn3)n[nH]c2c1 [Compound 29, (E)-1-(4-methyl-5-(3-(2-(pyridin-2-yl)vinyl)-1H-indazol-6-yl)thiazol-2-yl)-3-(3-(trifluoromethyl)phenyl)urea]	38 nM	25 nM	2 nM	4 nM	< 1 nM	< 1 nM	105 nM
Cc1nc(NC(=O)Cc2cccc(C(F)(F)F)c2)sc1-c1ccc2c(/C=C/c3ccccn3)n[nH]c2c1 [Compound 3, (E)-N-(4-methyl-5-(3-(2-(pyridin-2-yl)vinyl)-1H-indazol-6-yl)thiazol-2-yl)-2-(3-(trifluoromethyl)phenyl)acetamide]	28 nM	35 nM	0.1 nM	13 nM	12 nM	2 nM	2310 nM
COc1ccc(CC(=O)Nc2nc(C)c(-c3ccc4c(/C=C/c5ccccn5)n[nH]c4c3)s2)cc1OC [Compound 8, (E)-2-(3,4-methoxyphenyl)-N-(4-methyl-5-(3-(2-(pyridin-2-yl)vinyl)-1H-indazol-6-yl)thiazol-2-yl)acetamide]	19 nM	216 nM	0.4 nM	19 nM		1.2 nM	4870 nM
Cc1nc(NC(=O)CN2CCN(C)CC2)sc1-c1ccc2c(-c3cccnc3)n[nH]c2c1 [Compound 24, N-(4-methyl-5-(3-(pyridin-3-yl)-1H-indazol-6-yl)thiazol-2-yl)-2-(4-methylpiperazin-1-yl)acetamide]	114 nM	3210 nM	12 nM				5130 nM
Cc1nc(NC(=O)C(N)CC(C)C)sc1-c1ccc2c(/C=C/c3ccccn3)n[nH]c2c1 (centres unmarked) [Compound 18, (E)-2-amino-4-methyl-N-(4-methyl-5-(3-(2-(pyridin-2-yl)vinyl)-1H-indazol-6-yl)thiazol-2-yl)pentanamide]	37 nM	507 nM	6 nM				706 nM
Cc1nc(NC(=O)CN2CCN(C)CC2)sc1-c1ccc2c(-c3cncc(F)c3)n[nH]c2c1 [Compound 25, N-(5-(3-(5-fluoropyridin-3-yl)-1H-indazol-6-yl)-4-methylthiazole-2-yl)-2-(4-methylpiperazin-1-yl)acetamide]	241 nM	1460 nM	18 nM				1690 nM
Cc1nc(NC(=O)C(C)N)sc1-c1ccc2c(/C=C/c3ccccn3)n[nH]c2c1 (centres unmarked) [Compound 17, (E)-2-amino-N-(4-methyl-5-(3-(2-(pyridin-2-yl)vinyl)-1H-indazol-6-yl)thiazol-2-yl)propionamide]	88 nM	460 nM	4 nM				544 nM
Cc1nc(NC(=O)CN2CCN(C)CC2)sc1-c1ccc2c(-c3cccc(F)c3)n[nH]c2c1 [Compound 26, N-(5-(3-(3-fluorophenyl)-1H-indazol-6-yl)-4-methylthiazol-2-yl)-2-(4-methylpiperazin-1-yl)acetamide]	83 nM	1020 nM	26 nM				1040 nM
Cc1nc(NC(=O)CN2CCN(C)CC2)sc1-c1ccc2c(-c3cnn(C)c3)n[nH]c2c1 [Compound 21, N-(4-methyl-5-(3-(1-methyl-1H-pyrazol-4-yl)-1H-indazol-6-yl)thiazol-2-yl)-2-(4-methylpiperazin-1-yl)acetamide]	984 nM	2740 nM	68 nM				> 10000 nM
Cc1nc(NC(=O)C(C)C)sc1-c1ccc2c(/C=C/c3ccccn3)n[nH]c2c1 [Compound 19, (E)-N-(4-methyl-5-(3-(2-(pyridin-2-yl)vinyl)-1H-indazol-6-yl)thiazol-2-yl) isobutanamide]	41 nM	519 nM	4 nM				1580 nM

The remaining compounds from weak to strong by GI50 (TEL-cKIT/T670I-BaF3), led by results:

GI50 (TEL-cKIT/T670I-BaF3)	GI50 (TEL-cKIT-BaF3)	GI50 (TEL-FLT3-BaF3)	GI50 (TEL-VEGFR2-BaF3)	GI50 (TEL-PDGFRβ-BaF3)	GI50 (TEL-PDGFRα-BaF3)	SMILES	GI50 (BaF3)
323 nM	1350 nM	2150 nM				Cc1nc(NC(=O)C2CCN(C)CC2)sc1-c1ccc2c(/C=C/c3ccccn3)n[nH]c2c1 [Compound 16, (E)-1-methyl-N-(4-methyl-5-(3-(2-(pyridin-2-yl)vinyl)-1H-indazol-6-yl)thiazol-2-yl)piperidin-4 carboxamide]	1510 nM
48 nM	20 nM	300 nM	< 0.1 nM	2 nM	1.4 nM	CNC(=O)c1ccccc1Sc1ccc2c(/C=C/c3ccccn3)n[nH]c2c1 [Axitinib, reference compound]	430 nM
37 nM	70 nM	2 nM	9.8 nM		1.3 nM	Cc1nc(NC(=O)Cc2cccc(Cl)c2)sc1-c1ccc2c(/C=C/c3ccccn3)n[nH]c2c1 [Compound 10, (E)-2-(3-chlorophenyl)-N-(4-methyl-5-(3-(2-(pyridin-2-yl)vinyl)-1H-indazol-6-yl)thiazol-2-yl)acetamide]	4100 nM
37 nM	361 nM	3 nM				Cc1nc(NC(=O)C(N)Cc2ccccc2)sc1-c1ccc2c(/C=C/c3ccccn3)n[nH]c2c1 (centres unmarked) [Compound 20, (E)-2-amino-N-(4-methyl-5-(3-(2-(pyridin-2-yl)vinyl)-1H-indazol-6-yl)thiazol-2-yl)-3-phenylpropionamide]	708 nM
16 nM	961 nM	2 nM				CSCCC(N)C(=O)Nc1nc(C)c(-c2ccc3c(/C=C/c4ccccn4)n[nH]c3c2)s1 (centres unmarked) [Compound 15, (E)-2-amino-N-(4-methyl-5-(3-(2-(pyridin-2-yl)vinyl)-1H-indazol-6-yl)thiazol-2-yl)-4-(methylthio)butanamide]	594 nM
13 nM	133 nM	0.5 nM				Cc1nc(NC(=O)CN2CCN(C)CC2)sc1-c1ccc2c(-c3cnc(N)nc3)n[nH]c2c1 [Compound 23, N-(5-(3-(2-aminopyrimidin-5-yl)-1H-indazol-6-yl)-4-methylthiazol-2-yl)-2-(4-methylpiperazin-1-yl)acetamide]	1560 nM
7 nM	48 nM	0.1 nM				Cc1nc(NC(=O)Cc2cccc(C(F)(F)F)c2)sc1-c1ccc2c(-c3cccnc3)n[nH]c2c1 [Compound 28, N-(4-methyl-5-(3-(pyridin-3-yl)-1H-indazol-6-yl)thiazol-2-yl)-2-(3-(trifluoromethyl)phenyl)acetamide]	2490 nM
1 nM	94 nM	< 1 nM				Cc1nc(NC(=O)CC2CCN(C)CC2)sc1-c1ccc2c(/C=C/c3ccccn3)n[nH]c2c1 [Compound 27, (E)-N-(4-methyl-5-(3-(2-(pyridin-2-yl)vinyl)-1H-indazol-6-yl)thiazol-2-yl)-2-(1-methylpiperidin-4-yl)acetamide]	605 nM
